Assays:
Karpas-299 cells [1] = experiment: sPD-L1 ELISA of supernatants of Karpas-299 cells treated with protease inhibitors; format: cell-based; details: for Karpas-299 production of sB7H1: Example 3, supernatants by ELISA, p<0.0001; for secretion of sPD-L1: Karpas-299, 10 MM cells per ml, FIG. 4A; for secretion of sPD-L1 / sPD-L1 production with increasing concentrations: 24 hours; for sPD-L1 production with increasing concentrations: Karpas-299, 1 MM-10 MM cells/ml, aderbasib 320 pM to 32 mM, FIG. 4F
Procedure: (§1) Several tumor cell lines were treated with PBS (placebo) or with various protease inhibitors, including matrix metalloprotease inhibitors TAPI-2 and TAPI-0, aspartic protease inhibitor Pepstatin, cysteine protease inhibitor E-64, serine protease inhibitor Aprotinin, combinations of these inhibitors, and an array of other matrix metalloprotease inhibitors. Cell supernatants were queried for sPD-L1 by ELISA as published elsewhere (Frigola et la., supra). In brief, paired mouse IgG2 monoclonal antibodies against extracellular rhB7-H1 were utilized in a capture-detection plate assay using biotinylation and HRP-streptavidin detection. […] Concentrations were determined by optical density measurements along a known standard curve of rhB7-H1. Karpas-299 cells were incubated at 10 MM cells per ml in cell culture media (RPMI plus FBS plus Penicillin/Streptomycin plus buffering reagents) over 24 hours in the presence of 1 μl/100 μl DMSO or PBS (placebo), TAPI-2 at 278 μM, Pepstatin at 206.5 μM, E-64 at 185 μM, or Aprotinin at 220 μM, or a combination of the above materials at various concentrations. […] All statistical analyses were performed using R! software. Two-sided, unpaired Student t tests assessed statistical differences in experimental groups except where otherwise indicated. P values indicate comparison to vehicle control groups. P<0.05 was considered statistically significant.
Subsequent studies were conducted in which Karpas-299 cells were incubated with different matrix metalloprotease inhibitors with varying specificities. For example, Karpas-299 cells were incubated at 10 MM cells per ml in cell culture media over 24 hours in the presence of 1 μl/100 μl DMSO (control), 50 μM TAPI-2, 50 μM TAPI-0, 50 μM GI254023X, 5 μM Ro 32-3555, 5 μM ARP 101, 50 μM UK 370106, 500 pM MMP-9 inhibitor I, 5 μM Doxycycline, or some combination thereof.
Aderbasib is a selective inhibitor of matrix metalloproteases ADAM10 and ADAM17. Karpas-299 cells were incubated at 1 MM-10 MM cells/ml and treated for 24 hours with concentrations of aderbasib ranging from 320 pM to […].
(§2) Karpas-299 lymphoma cells producing sB7-H1 were cultured with an array of protease inhibitors. Supernatants from these cultures were isolated and analyzed for sB7H1 concentration by ELISA. Subsequently, activated human CD8+ T cells were cultured with recombinant sB7H1 protein and cell survival was measured at 24 hours. CD8+ T cells also were cultured with sB7H1-rich tumor cell line supernatants versus sB7H1-depleted supernatants over 48 hours in the presence of placebo, low dose (10 nM), or high dose (1 μM) anti-PD-1 antibody pembrolizumab, and cell survival was measured.

[2] = system: Mel-B7H1 (transgenic melanoma) cells; experiment: sPD-L1 ELISA of supernatants of Mel-B7H1 cells; format: cell-based; details: FIG. 4D
Procedure: as §1, with “significant. […]” for “significant.”

[3] = system: A786-0 (renal cell carcinoma) cells; experiment: sPD-L1 ELISA of supernatants of A786-0 cells treated with protease inhibitors; format: cell-based; details: for mean sPD-L1 production: n=5, FIG. 4E
Procedure: Tumor cells were treated with PBS (placebo) or with various protease inhibitors, including MMP inhibitors TAPI-2 and TAPI-0, aspartic protease inhibitor Pepstatin, cysteine protease inhibitor E-64, serine protease inhibitor Aprotinin, combinations of these inhibitors, and an array of other MMP inhibitors. Cell supernatants were queried for sPD-L1 by ELISA. FIG. 4A, Karpas-299 (lymphoma) cells were treated with the indicated protease inhibitors. FIG. 4B, A786-0 (renal cell carcinoma) cells were treated with the indicated protease inhibitors. FIG. 4C, Dul45 cells were treated with the indicated protease inhibitors. FIG. 4D, Mel-B7H1 (transgenic melanoma) cells were treated with the indicated protease or metalloprotease inhibitors. FIG. 4E is a graph plotting sPD-L1 production induced by interferon treatment or high cell titer in A786-0 cells. Cells grown at 1 MM/ml in control DMSO produced little sPD-L1. […] FIG. 4F is a graph plotting the amount of sPD-L1 in supernatants of Karpas-299 cells treated with control or with varying concentrations of the ADAM10/17 inhibitor aderbasib.
Several tumor cell lines were treated with PBS (placebo) or with various protease inhibitors, including matrix metalloprotease inhibitors TAPI-2 and TAPI-0, aspartic protease inhibitor Pepstatin, cysteine protease inhibitor E-64, serine protease inhibitor Aprotinin, combinations of these inhibitors, and an array of other matrix metalloprotease inhibitors. Cell supernatants were queried for sPD-L1 by ELISA as published elsewhere (Frigola et la., supra). In brief, paired mouse IgG2 monoclonal antibodies against extracellular rhB7-H1 were utilized in a capture-detection plate assay using biotinylation and HRP-streptavidin detection. […] Concentrations were determined by optical density measurements along a known standard curve of rhB7-H1. […] Two-sided, unpaired Student t tests assessed statistical differences in experimental groups except where otherwise indicated. […]

[4] = system: Dul45 prostate cancer cells; experiment: sPD-L1 ELISA of supernatants of Dul45 prostate cancer cells; format: cell-based; details: FIG. 4C
Procedure: as §1
Further studies were conducted using different types of cells.

PD-L1 mRNA = PD-L1 mRNA expression by RT-PCR in Karpas-299 cells; format: cell-based; details: data not shown
Karpas-299 cells [5] = experiment: PD-L1 flow cytometry of Karpas-299 cells; format: cell-based; details: vs DMSO, FIGS. 7A, 7B
Procedure: (§3) FIGS. 7A and 7B are flow cytometry plots and graphs showing that cell PD-L1 expression is restored by treatment with an inhibitor of ADAM10 and/or ADAM17, and is decreased by treatment with exogenous recombinant ADAM10 or ADAM17. Cells were incubated in the presence of the indicated treatments, and PD-L1 flow cytometry was performed.

A549 cells = experiment: PD-L1 flow cytometry of A549 cells; format: cell-based; details: vs DMSO, FIGS. 7C, 7D
Procedure: as §3

CD8+ T cells = experiment: CD8+ T cell survival with Karpas-299 supernatants, TMRE/Annexin-V flow cytometry; format: cell-based, human
Procedure: CD8+ T cells isolated from healthy subjects were incubated in the presence of 50% Karpas-299 supernatants of varying types and 50% fresh cell culture media. Supernatant types included sPD-L1-rich supernatants from Karpas-299 cells, supernatants from Karpas-299 cells treated with TAPI-0 to prevent sPL-L1 production, supernatants from Karpas-299 cells “spiked” with TAPI-0 after sPD-L1 production, and fresh culture media controls (FIG. 5C). Karpas-299 cell supernatants were generated by incubation at 10 MM cells/ml for 48 hours. TMRE/Annexin-V binding was measured by flow cytometry to assess the level of CD8+ T cell survival. Antibodies and reagents used for flow cytometry were Annexin-V-FITC, anti-mouse CD16/32 (BioLegend; San Diego, Calif.); anti-PD-L1, mouse isotype control (eBioScience/Thermo Fisher Scientific; Waltham, Mass.), TMRE-PE (Abcam; Cambridge, Mass.), BD Wash/Perm (Becton Dickenson; Waltham, Mass.). Flow cytometry was performed and analyzed using FlowJo (Treestar; Ashland, Oreg.).
CD8+ T cells were incubated with supernatants from Karpas-299 cells as above, plus varying doses of several anti-PD-1 antibodies.
as §2

`CNC(=O)[C@@H](NC(=O)[C@H](CCCc1ccccc1)[C@H](C)N(O)C=O)C(C)(C)C` [GI254023X] was tested, and the “Karpas-299 production of sB7H1” value (Karpas-299 cells [1]) was “inhibited” and the sPD-L1 expression [2] was “most significantly reduced”.

`CC(C)C[C@H](CC(=O)NO)C(=O)N[C@H](C(=O)N[C@@H](C)C(=O)NCCN)C(C)(C)C` [TAPI-2] was tested, and the “Karpas-299 production of sB7H1” value (Karpas-299 cells [1]) was “inhibited”, the “secretion of sPD-L1” value (Karpas-299 cells [1]; TAPI-2 at 278 μM, vs DMSO or PBS, p=5.6×10^−12) was “reduced the secretion of sPD-L1” and the sPD-L1 secretion ([3]; A786-0 grown between 1 MM and 10 MM cells per ml, FIG. 4B) was “significantly reduced”. For the same molecule, the “sPD-L1 secretion versus controls” value [4] was “significantly reduced”, the sPD-L1 expression [2] was “most significantly reduced” and the “PD-L1 mRNA expression (RT-PCR)” value (PD-L1 mRNA; Karpas-299, TAPI-2 at 278 μM, 24 hours) was “without reducing PD-L1 mRNA expression”. The “PD-L1 expression (flow cytometry)” value (Karpas-299 cells [5]) was “restored” and the “PD-L1 expression (flow cytometry)” value (A549 cells) was “restored”.

With `COC(=O)N1CC2(CC2)C[C@H](C(=O)NO)[C@H]1C(=O)N1CCN(c2ccccc2)CC1` [aderbasib] the “sPD-L1 production with increasing concentrations” value (Karpas-299 cells [1]) was “decreasing concentrations of sPD-L1”, the “sPD-L1 production with increasing concentrations” value (Karpas-299 cells [1]; listed as Aderbasib) was “reduces sPD-L1 production” and the “mean sPD-L1 production” value ([3]; A786-0 at 10 MM/ml, control DMSO 886 pg/ml, p=0.00018) was 276 pg/mL. For the same molecule, the “sPD-L1 secretion versus controls” value [4] was “significantly reduced”.

For `CC(C)C[C@H](CC(=O)NO)C(=O)N[C@@H](Cc1ccc2ccccc2c1)C(=O)N[C@@H](C)C(N)=O` [TAPI-0], the “Karpas-299 production of sB7H1” value (Karpas-299 cells [1]) was “inhibited”, the “secretion of sPD-L1” value (Karpas-299 cells [1]; 50 μM TAPI-0, vs DMSO, p=3.97×10^−7) was “reduced the secretion of sPD-L1” and the “mean sPD-L1 production” value ([3]; A786-0 at 1 MM/ml, interferon plus TAPI-0, interferon alone 923 pg/ml) was 0 pg/mL. The “sPD-L1 secretion versus controls” value [4] was “significantly reduced”, the “PD-L1 mRNA expression” value (PD-L1 mRNA; Karpas-299, 50 μM TAPI-0, 24 hours) was “without reducing PD-L1 mRNA expression” and the “rate of apoptosis of CD8+ T cells” value (CD8+ T cells; 50% supernatant from TAPI-0 treated Karpas-299 cells and 50% fresh media, FIG. 5C) was 2.46%. For the same molecule, the “CD8+ T cell death” value (CD8+ T cells; Karpas-299 supernatants with added TAPI-0) was “did not induce cell death”.

Reference: US20210361767A1, “RESCUING CANCER PATIENTS FROM RESISTANCE TO TREATMENT WITH INHIBITORS OF PD-1/PD-L1 INTERACTIONS” (Mayo Foundation for Medical Education and Research, priority 2018, published 2021)
